Reference: patent US11154060B2, “Microbiocidal oxadiazole derivatives” (SYNGENTA PARTICIPATIONS AG, priority 2016, dated 2021)

Tests used:
Phakopsora pachyrhizi = Phakopsora pachyrhizi / soybean / leaf disc preventative (Asian soybean rust); format: in vivo; conditions: foliar, soybean leaf disks, inoculated one day after application, assessed 12-14 days after application, read-out: control of Phakopsora pachyrhizi compared to untreated control
Method in brief: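 Soybean leaf discs on water agar sprayed with formulated compound diluted in water; spore suspension sprayed on lower surface 1 day later. Kept 24-36 h dark at 20° C, 75% rh, then 12 h light/12 h dark. Percent disease control versus untreated scored 12-14 days after application.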

Uromyces viciae-fabae = Uromyces viciae-fabae / field bean / leaf disc preventative (faba-bean rust); format: in vivo; conditions: foliar, 288 h, 100 ppm in the applied formulation, field bean leaf discs, inoculated two hours after application, 12 days after application, read-out: disease control compared to untreated control leaf discs
Description: Leaf disks or leaf segments of various plant species are cut from plants grown in a greenhouse. The cut leaf disks or segments are placed in multiwell plates (24-well format) onto water agar. The leaf disks are sprayed with a test solution before (preventative) or after (curative) inoculation. Compounds to be tested are prepared as DMSO solutions (max. 10 mg/ml) which are diluted to the appropriate concentration with 0.025% Tween20 just before spraying. The inoculated leaf disks or segments are incubated under defined conditions (temperature, relative humidity, light, etc.) according to the respective test system. A single evaluation of disease level is carried out 3 to 14 days after inoculation, depending on the pathosystem. Percent disease control relative to the untreated check leaf disks or segments is then calculated. Field bean leaf discs are placed on water agar in multiwell plates (96-well format) and 10 μl of the formulated test compound diluted in acetone and a spreader pipetted onto the leaf disc. Two hours after application leaf discs are inoculated by spraying a spore suspension on the lower leaf surface. The leaf discs are incubated in a climate cabinet at 22° C. with 18 hour day and 70% relative humidity. The activity of a compound is assessed as percent disease control compared to untreated when an appropriate level of disease damage appears in untreated check leaf disks (12 days after application).

[1] = tested on: Glomerella lagenarium (Colletotrichum lagenarium); experiment: Glomerella lagenarium (Colletotrichum lagenarium) liquid culture / cucumber / preventative (anthracnose); format: cell-based; conditions: Colletotrichum orbiculare, liquid culture in PDB, 24° C., 3-4 days after application, read-out: control of Glomerella lagenarium compared to untreated control (inhibition of growth, photometric)
Method in brief: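 Conidia from cryogenic storage mixed into potato dextrose broth and added to compound diluted from DMSO stock with 0.025% Tween20. Incubated at 24 °C; growth inhibition read photometrically 3–4 days after application, as percent antifungal activity versus untreated check.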

[2] = tested on: Puccinia recondita f. sp. tritici; experiment: Puccinia recondita f. sp. tritici / wheat / leaf disc preventative (brown rust); format: in vivo; conditions: foliar, wheat leaf segments cv. Kanzler, inoculated 1 day after application, assessed 7-9 days after application, read-out: control of Puccinia recondita f. sp. tritici compared to untreated control
Method in brief: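 Wheat leaf segments (cv. Kanzler) on water agar sprayed with compound diluted from DMSO stock in water/0.025% Tween20, then inoculated with P. recondita spores 1 day later. Incubated at 19 °C, 75% rh, 12 h light/dark. Percent disease control versus untreated assessed 7-9 days after application.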

[3] = tested on: Puccinia recondita f. sp. tritici; experiment: Puccinia recondita f. sp. tritici / wheat / leaf disc curative (brown rust); format: in vivo; conditions: foliar, wheat leaf segments cv. Kanzler, applied 1 day after inoculation, assessed 6-8 days after application, read-out: control of Puccinia recondita f. sp. tritici compared to untreated control
Method in brief: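 Wheat cv. Kanzler leaf segments on agar, inoculated with brown rust spores and kept dark at 19 °C, 75% rh; formulated compound sprayed 1 day after inoculation (curative). Incubated 19 °C, 75% rh, 12 h light/dark; percent disease control vs untreated scored 6–8 days after application.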

melting point [°C]	SMILES	pest or weed control at 200 ppm (Phakopsora pachyrhizi) [%]	pest or weed control at 100 ppm (Uromyces viciae-fabae) [%]	inhibition at 20 ppm [1] [%]	pest or weed control at 200 ppm [2] [%]	pest or weed control at 200 ppm [3] [%]
122 to 125	CONC(=O)c1ccc(-c2noc(C(F)(F)F)n2)cc1F [Compound 1.1, 2-fluoro-N-methoxy-4-[5-(trifluoromethyl)-1,2,4-oxadiazol-3-yl]benzamide]	≥ 80	≥ 80	≥ 80	≥ 80	≥ 80
83.5 to 86.2	CON(C(=O)c1ccc(-c2noc(C(F)(F)F)n2)cc1F)C(C)Cc1c(Cl)cc(Cl)cc1Cl (stereo not drawn) [Compound 1.4, 2-fluoro-N-methoxy-N-[1-methyl-2-(2,4,6-trichlorophenyl)ethyl]-4-[5-(trifluoromethyl)-1,2,4-oxadiazol-3-yl]benzamide]		≥ 80			
85.8 to 88	CC(CC#N)ONC(=O)c1ccc(-c2noc(C(F)(F)F)n2)cc1F (stereo not drawn) [Compound 1.11, N-(2-cyano-1-methyl-ethoxy)-2-fluoro-4-[5-(trifluoromethyl)-1,2,4-oxadiazol-3-yl]benzamide]	≥ 80	≥ 80	≥ 80	≥ 80	≥ 80
60.3 to 62.4	O=C(c1ccc(-c2noc(C(F)(F)F)n2)cc1F)N1CCCO1 [Compound 1.26, [2-fluoro-4-[5-(trifluoromethyl)-1,2,4-oxadiazol-3-yl]phenyl]-isoxazolidin-2-yl-methanone]		≥ 80	≥ 80	≥ 80	≥ 80
57.3 to 59.4	O=C(c1ccc(-c2noc(C(F)(F)F)n2)cc1F)N1CCCCO1 [Compound 1.27, [2-fluoro-4-[5-(trifluoromethyl)-1,2,4-oxadiazol-3-yl]phenyl]-(oxazinan-2-yl)methanone]	≥ 80	≥ 80	≥ 80	≥ 80	≥ 80
167 to 169	C#CCONC(=O)c1ccc(-c2noc(C(F)(F)F)n2)cc1 [Compound 2.11, N-prop-2-ynoxy-4-[5-(trifluoromethyl)-1,2,4-oxadiazol-3-yl]benzamide]	≥ 80	≥ 80	≥ 80	≥ 80	≥ 80
134 to 135	C=CCONC(=O)c1ccc(-c2noc(C(F)(F)F)n2)cc1 [Compound 2.12, N-allyloxy-4-[5-(trifluoromethyl)-1,2,4-oxadiazol-3-yl]benzamide]	≥ 80	≥ 80	≥ 80	≥ 80	≥ 80
89	O=C(c1ccc(-c2noc(C(F)(F)F)n2)cc1)N1OC2C=CC1CC2 (stereo not drawn) [Compound 2.23, 2-oxa-3-azabicyclo[2.2.2]oct-5-en-3-yl-[4-[5-(trifluoromethyl)-1,2,4-oxadiazol-3-yl]phenyl]methanone]	≥ 80	≥ 80	≥ 80	≥ 80	≥ 80
120 to 121	O=C(c1ccc(-c2noc(C(F)(F)F)n2)cc1)N1OC2CCC1CC2 [Compound 2.24, 2-oxa-3-azabicyclo[2.2.2]octan-3-yl-[4-[5-(trifluoromethyl)-1,2,4-oxadiazol-3-yl]phenyl]methanone]	≥ 80	≥ 80	≥ 80		≥ 80
